In PMC3776780, “Dual p38/JNK Mitogen Activated Protein Kinase Inhibitors Prevent Ozone-Induced Airway Hyperreactivity in Guinea Pigs” (PLoS ONE, 2013):
pKi: −log10 of the molar value.

Legend:
[1] = tested on: ozone-induced airway hyperreactivity mediated by the vagus nerves; assay: vagally induced bronchoconstriction (airway hyperreactivity); type: in vivo, guinea pigs; details: ozone-exposed, 30 mg/kg ip 1 h before ozone, one day post-exposure, vagal stimulation 1–25 Hz
Description: (§1) Guinea pigs were exposed to 2 ppm ozone or filtered air for 4 hours as described previously. Physiological measurements, airway inflammation, and histological measurements were made one day after a single ozone exposure.
(§2) Animals were given 30 mg/kg intraperitoneally of the dual p38 and JNK MAPK inhibitors V-05-013, V-05-014, or V-05-015 (Vertex Pharmaceuticals, Cambridge, MA) one hour before ozone exposure (Figure 1). These compounds were chosen because of their overall kinase selectivity profile. […] Inhibitors were dissolved in 25% DMSO in phosphate buffered saline (PBS). Air exposed control animals were given 25% DMSO in PBS one hour before ozone exposure.
(§3) Physiological measurements were made as previously described. The jugular veins were cannulated for intravenous administration of drugs and the right carotid artery was cannulated to measure heart rate and blood pressure. Both vagus nerves were cut and distal ends placed on platinum electrodes submerged in liquid paraffin. Animals were tracheostomized, ventilated (1 ml/100 g body weight, 100 breaths per minute) and paralyzed with a constant infusion of succinylcholine (10 µg/kg/min iv, Sigma-Aldrich). Pulmonary inflation pressure was measured at the trachea and bronchoconstriction was measured as the increase in pressure over basal inflation pressure produced by the ventilator.
(§4) Electrical stimulation of both vagus nerves (10V, 0.2 ms pulse width, 1–25 Hz, 5 sec duration at 1 minute intervals) produced frequency dependent bronchoconstriction and bradycardia due to release of acetylcholine onto muscarinic receptors.

[2] = baseline cardiovascular and pulmonary parameters one day after ozone or air exposure; type: in vivo, guinea pigs; details: ozone-exposed (2 ppm, 4 h), inhibitor 30 mg/kg ip 1 h before, one day post-exposure, mean ± SEM
Description: as §1, §2
One day after exposure to ozone, guinea pigs were anesthetized with 1.9 g/kg urethane i.p. (Sigma-Aldrich, St. Louis, MO). This dose produces a deep anesthesia lasting 8–10 hours though no experiments lasted longer than 4 hours.
as §3

PKA = PKA (Homo sapiens, UniProt P17612); assay: spectrophotometric coupled-enzyme kinase inhibition assay; type: biochemical; details: read-out: Ki or IC50 PKA
Description: (§5) Affinity was measured using a kinase inhibition assay. Compounds were assayed for the inhibition of various kinases using a modification of a spectrophotometric coupled-enzyme assay. In this assay, a fixed concentration of activated kinase (10–40 nM) was incubated with various concentrations of a potential inhibitor dissolved in DMSO for 10 minutes at 30°C in a buffer containing 0.1 M HEPES, pH 7.5, containing 10 mM MgCl2, 2.5 mM phosphoenolpyruvate, 200 µM NADH, 2 mM DTT, 30 µg/mL pyruvate kinase, 10 µg/mL lactate dehydrogenase, and 200 µM–500 µM EGF receptor peptide. The EGF receptor peptide has the sequence […]. The reaction was initiated by the addition of ATP equal to the ATP Km of the kinase, and the assay plate is inserted into the spectrophotometer’s assay plate compartment that was maintained at 30°C. The decrease of absorbance at 340 nm was monitored as a function of time for 10 minutes. The rate data as a function of inhibitor concentration was either fit as an IC50 or to a competitive inhibition kinetic model to determine the compound Ki (see table 1).

KDR = KDR (Homo sapiens, UniProt P35968); assay: as above; type: biochemical; details: read-out: Ki or IC50 KDR
Description: as §5

PRAK = target: T1, PRAK (Homo sapiens, UniProt Q8IW41); assay: as above; type: biochemical; details: read-out: Ki or IC50 PRAK
T1 sequence (Q8IW41 1-473): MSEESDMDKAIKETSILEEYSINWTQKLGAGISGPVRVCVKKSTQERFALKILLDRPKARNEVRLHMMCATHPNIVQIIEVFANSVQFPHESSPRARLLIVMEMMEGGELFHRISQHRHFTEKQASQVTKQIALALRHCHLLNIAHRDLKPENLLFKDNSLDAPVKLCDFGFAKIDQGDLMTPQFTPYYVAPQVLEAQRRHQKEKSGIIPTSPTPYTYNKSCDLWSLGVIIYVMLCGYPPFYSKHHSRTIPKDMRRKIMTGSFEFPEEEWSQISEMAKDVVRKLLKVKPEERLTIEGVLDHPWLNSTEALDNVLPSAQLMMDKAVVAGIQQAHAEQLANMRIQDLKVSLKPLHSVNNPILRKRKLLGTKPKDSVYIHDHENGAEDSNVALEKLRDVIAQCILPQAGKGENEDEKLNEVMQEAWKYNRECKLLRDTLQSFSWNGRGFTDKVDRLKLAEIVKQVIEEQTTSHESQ
Description: as §5

MKK4 = target: T2, MKK4 (Homo sapiens, UniProt P45985); assay: as above; type: biochemical; details: read-out: Ki or IC50 MKK4
T2 sequence (P45985 1-399): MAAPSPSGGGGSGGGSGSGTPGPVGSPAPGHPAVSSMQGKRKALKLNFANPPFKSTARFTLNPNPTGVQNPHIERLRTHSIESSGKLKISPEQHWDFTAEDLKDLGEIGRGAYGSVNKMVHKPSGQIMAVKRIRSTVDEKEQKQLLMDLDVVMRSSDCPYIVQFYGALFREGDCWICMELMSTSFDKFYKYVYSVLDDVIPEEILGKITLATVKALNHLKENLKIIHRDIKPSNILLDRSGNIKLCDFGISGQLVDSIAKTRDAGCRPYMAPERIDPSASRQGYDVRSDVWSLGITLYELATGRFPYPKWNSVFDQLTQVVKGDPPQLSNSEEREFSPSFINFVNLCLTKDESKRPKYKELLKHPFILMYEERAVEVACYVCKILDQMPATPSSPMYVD
Description: as §5

MAPKAP2 = MAPKAP2 (Homo sapiens, UniProt P49137); assay: as above; type: biochemical; details: read-out: Ki or IC50 MAPKAP2
Description: as §5

AKT3 = AKT3 (Homo sapiens, UniProt Q9Y243); assay: as above; type: biochemical; details: read-out: Ki or IC50 AKT3
Description: as §5

[3] = tested on: vagally mediated falls in heart rate; assay: falls in heart rate in response to vagal stimulation; type: in vivo, guinea pigs; details: ozone-exposed, 30 mg/kg ip 1 h before ozone
Description: as §1, §2, §3, §4

Sequence of MAPKAP2 (P49137 whole entry): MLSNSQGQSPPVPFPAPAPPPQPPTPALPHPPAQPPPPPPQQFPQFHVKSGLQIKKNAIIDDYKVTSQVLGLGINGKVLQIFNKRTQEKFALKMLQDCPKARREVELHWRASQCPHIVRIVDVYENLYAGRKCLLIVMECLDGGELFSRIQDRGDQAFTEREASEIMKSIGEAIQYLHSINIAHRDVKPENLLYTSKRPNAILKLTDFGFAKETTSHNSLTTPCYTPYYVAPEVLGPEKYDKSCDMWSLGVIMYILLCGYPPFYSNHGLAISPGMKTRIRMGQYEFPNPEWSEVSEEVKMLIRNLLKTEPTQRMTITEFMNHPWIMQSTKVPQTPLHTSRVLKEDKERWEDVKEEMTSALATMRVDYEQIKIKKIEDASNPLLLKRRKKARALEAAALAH
Sequence of AKT3 (Q9Y243 whole entry, species assumed): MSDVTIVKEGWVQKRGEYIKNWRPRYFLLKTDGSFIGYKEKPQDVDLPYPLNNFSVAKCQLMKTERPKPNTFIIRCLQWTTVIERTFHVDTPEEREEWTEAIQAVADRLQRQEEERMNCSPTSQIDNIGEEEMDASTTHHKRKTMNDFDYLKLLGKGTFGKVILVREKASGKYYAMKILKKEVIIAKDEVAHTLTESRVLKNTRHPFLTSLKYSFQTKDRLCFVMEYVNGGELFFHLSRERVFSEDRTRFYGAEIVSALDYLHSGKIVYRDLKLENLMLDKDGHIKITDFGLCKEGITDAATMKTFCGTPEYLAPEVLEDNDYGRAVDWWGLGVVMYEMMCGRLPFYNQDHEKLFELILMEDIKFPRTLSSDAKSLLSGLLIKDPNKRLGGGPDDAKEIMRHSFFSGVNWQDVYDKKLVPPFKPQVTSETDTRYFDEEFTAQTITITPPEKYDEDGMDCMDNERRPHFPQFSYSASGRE
Sequence of KDR (P35968 20-1356, species assumed): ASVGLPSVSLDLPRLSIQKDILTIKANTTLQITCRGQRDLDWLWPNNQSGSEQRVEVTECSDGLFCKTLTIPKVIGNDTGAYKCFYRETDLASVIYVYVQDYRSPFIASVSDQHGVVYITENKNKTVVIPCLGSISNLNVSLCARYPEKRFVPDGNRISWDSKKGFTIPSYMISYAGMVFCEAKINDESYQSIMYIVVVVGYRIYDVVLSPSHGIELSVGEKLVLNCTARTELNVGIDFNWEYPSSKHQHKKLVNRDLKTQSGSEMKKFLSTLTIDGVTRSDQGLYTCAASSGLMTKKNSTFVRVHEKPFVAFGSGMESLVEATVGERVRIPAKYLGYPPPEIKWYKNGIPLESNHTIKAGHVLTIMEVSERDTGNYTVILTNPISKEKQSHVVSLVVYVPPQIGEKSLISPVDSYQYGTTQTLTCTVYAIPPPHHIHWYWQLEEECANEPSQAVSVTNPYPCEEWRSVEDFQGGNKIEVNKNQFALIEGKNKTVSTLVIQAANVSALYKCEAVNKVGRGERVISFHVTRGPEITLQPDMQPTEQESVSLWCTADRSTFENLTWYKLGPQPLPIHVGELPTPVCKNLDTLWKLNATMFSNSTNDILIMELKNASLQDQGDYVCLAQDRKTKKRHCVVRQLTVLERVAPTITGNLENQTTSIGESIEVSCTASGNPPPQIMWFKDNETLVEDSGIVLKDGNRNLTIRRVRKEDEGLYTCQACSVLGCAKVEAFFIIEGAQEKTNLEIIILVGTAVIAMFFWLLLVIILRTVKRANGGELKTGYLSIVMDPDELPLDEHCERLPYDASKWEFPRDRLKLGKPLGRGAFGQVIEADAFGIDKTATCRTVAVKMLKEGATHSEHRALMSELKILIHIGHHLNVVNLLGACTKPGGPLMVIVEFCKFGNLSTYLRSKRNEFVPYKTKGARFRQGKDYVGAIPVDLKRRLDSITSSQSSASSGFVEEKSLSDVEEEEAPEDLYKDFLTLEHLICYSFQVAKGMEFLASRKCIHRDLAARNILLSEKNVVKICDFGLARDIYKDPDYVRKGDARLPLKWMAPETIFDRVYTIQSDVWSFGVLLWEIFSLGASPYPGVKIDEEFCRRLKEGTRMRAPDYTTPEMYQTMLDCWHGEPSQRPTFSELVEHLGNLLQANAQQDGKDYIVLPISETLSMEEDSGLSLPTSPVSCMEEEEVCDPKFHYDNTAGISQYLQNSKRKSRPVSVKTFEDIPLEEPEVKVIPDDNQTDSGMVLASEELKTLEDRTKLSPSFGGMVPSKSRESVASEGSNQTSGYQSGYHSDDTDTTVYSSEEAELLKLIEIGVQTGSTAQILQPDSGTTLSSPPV

Row | pKi (PKA) | pKi (KDR) | pKi (PRAK) | pKi (MKK4) | pKi (MAPKAP2) | pKi (AKT3) | Compound | effect on ozone-induced potentiation of vagally induced bronchoconstriction [1] | Pulmonary Inflation Pressure (baseline) [2] | effect on ozone-induced potentiation of vagally mediated falls in heart rate [3]
1 | < 6.00 | < 6.00 | < 6.00 | < 6.00 | < 6.00 | < 6.00 | OC1CCN(Cc2onc(-c3ccc(F)cc3)c2-c2ccnc(NC3CCCCC3)n2)CC1 [V-05-013] | completely prevented ozone-induced airway hyperreactivity | 190±15 ^‡ mmH2O | prevented the ozone-induced potentiation of frequency induced falls in heart rate
2 | < 6.00 | < 6.00 | < 6.00 | < 6.00 | < 6.00 | < 6.00 | OC[C@@H]1CCCN1Cc1onc(-c2ccc(F)cc2)c1-c1ccnc(NC2CCCCC2)n1 [V-05-014] | completely prevented ozone-induced airway hyperreactivity | 225±5 mmH2O | prevented the ozone-induced potentiation of frequency induced falls in heart rate
3 | < 6.00 | < 6.00 | < 6.00 | < 6.00 | < 6.00 | < 6.00 | Fc1ccc(-c2noc(CN3CCCCC3)c2-c2ccnc(NC3CCCCC3)n2)cc1 [V-05-015] | completely prevented ozone-induced airway hyperreactivity | 213±7 mmH2O | prevented the ozone-induced potentiation of frequency induced falls in heart rate
